We go through ten compounds from patent EP0488965A1, “Phthalidilidene derivatives of carnitine and alkanoylcarnitines and pharmaceutical compositions containing them” (Sigma-Tau Industrie Farmaceutiche Riunite S.p.A., priority 1990, dated 1992).

Data set [1] concerns the target T1, PAF (platelet activating factor) receptors (Oryctolagus cuniculus, UniProt G1TEI7).
T1 construct: Blood was drawn via indracardiac puncture from male rabbits; from tissue; host or cells: Platelets from the blood of male rabbits (HY/CR strain, Charles River, Italy)
In words: Binding to PAF receptors (3H-PAF displacement in rabbit platelets). The note with it: 50% inhibiting concentration of specific receptor binding, 3H-PAF 0.5 nM, 30 minutes at 25°C. As for the experimental part: The binding of the compounds under examination to rabbit platelet receptors was studied following the procedure disclosed by D. Nunez et al, Eur J. Pharmacol. 123, 197 (1986).
Blood was drawn via indracardiac puncture from male rabbits (HY/CR strain-Charles River, Italy) weighing 2.5-3.0 Kg.
Blood was diluted (1:9) in a ACD (0.8% citric acid, 2.2% trisodium citrate, 2.45% glucose, weight percentages) solution and centrifuged at 100 x g for 15 minutes.
The precipitate was suspended in the incubation buffer at […] platelet/ml concentration, immediately before binding.
The platelet number and possible erythrocyte contamination was controlled with a platelet counter DELCON CA480.
Platelets were incubated in polyethylene tubes with ³H-PAF (0.5 nM) for 30 minutes at 25°C. The test compounds were added to a volume of 200 µl. The final volume was equal to 500 µl. Incubation was stopped by rapid filtration under vacuum through GF/C filters (WHATMAN) washed with (3x3 ml) cold incubation buffer using a Brondel Cell Harvester filtration system. The filters were counted in 8 mL OptiFluor (Packard) using a TRI-CARB 1900 CA-Packard liquid scintillation spectrometer (about 50% counting efficiency).
The percentage of inhibition of the specific binding receptor-radioligand was calculated for each concentration (mean of incubations in triplicate).
The competition curve, the slope of the curve, and the IC₅₀ value (concentration which inhibits 50% of the specific radioligand-receptor binding) were calculated with the "All fit" program (A. De Lean et al., Am. J. Physiol. 235, E97, 1978) runned in a 55-SX IBM computer.

The subject of the next data set is mice. In words: Observation of behaviour and death rate in mice (Irwin method). In kind it is in vivo. To be noted: for SYMPTOMS: male mice, 4 animals/dose, n.e. = no effect; for DEATH RATE: mouse, in vivo. The procedure: The observation of normal behaviour in mice was conducted following the method by S. Irwin, Psychopharmacologia 13, 222 ( 1968). This method allows alterations of some behavioural, neurophysiological and neurovegetative parameters directly detectable by the experimenter to be visualized.
The test was conducted in male mice [Crl;(CD-I)(ICR)BR, Charles River - Italy] weighing 22-25 g, following oral administration of the compounds suspended in carboxymethylcellulosa (0.5% by weight in H₂O) to groups of 4 animals/dose.
The animals were kept under continuous observation for five hours following treatment and twice a day for the subsequent five days.
Death rate was also observed during the whole test period. The initial administered dose was 1,000 mg/kg per os; lower doses were administered following death of some animals or after marked effects at the initial dose were dected.

For data set [2], the system named is PAF-induced platelet aggregation. Briefly: PAF-induced platelet aggregation in platelet rich plasma. To be noted: Oryctolagus cuniculus, 2 min, compound 10^-5M, 2 minutes of incubation, rabbit PRP. The format is cell-based, rabbits. The procedure: Blood was collected from male rabbits (HY/Charles River, Italy) by heart puncture using a plastic syringe and transferred immediately into plastic tubes containing 3.8% (by weight) solution of sodium citrate (0.1 ml/ml blood).
PRP (Platelet Rich Plasma) was obtained by plasma centrifugation at 145 x g for 5 minutes at 22°C. Platelet number was determined with a CA 580A (Delcon) "platelet counter". The platelet number was adjusted to the fixed value of […] by adding PPP (Platelet Poor Plasma). PPP was obtained by centrifuging blood at 1600 x g for 10 minutes at 22°C.
(§1) Platelet aggregation was determined photometrically (G.V.R. Born, Nature 194, 927; 1962) with an ELVI 840 aggregometer in plastic tubes under continuous stirring at 1000 rpm.
(§2) Maximal light transmission (100% ) was recorded by reading PPP, while 0% transmission was recorded by reading PRP. The PRP aggregation degree induced by the aggregation factor (PAF) was calculated as percentage of maximal light transmittance obtained with PPP using 250 µL samples of PRP.
(§3) The compounds were dissolved in bidistilled water at the concentration of 10⁻⁵ M and tested after 2 minutes of incubation.
(§4) Aggregation inhibition was calculated as percentage of the value obtained in the presence of the aggregating agent only.

Data set [3] concerns ADP-induced platelet aggregation. Briefly: ADP-induced platelet aggregation in platelet rich plasma. In kind it is cell-based, rats. The note with it: 2 min, compound 10^-5M, 2 minutes of incubation, rat PRP. As for the experimental part: as §1, §2, §3, §4
Blood was drawn from the abdominal aorta of male rats (Crl:(WI)BR, Charles River, Italy) under barbiturate anaesthesia and quickly transferred into plastic tubes containing 0.1 mL/mL blood of 3.8% (by weight) solution of sodium citrate. PRP was obtained by plasma centrifugation at 115 x g for 5 minutes at 22°C and PPP by centrifugation at 1600 x g for 10 minutes. The final PRP platelet number was adjusted to the fixed value of […] of PRP by adding PPP.
Platelet count was made with a CA580 A(Delcan) platelet counter. The same procedure outlined in the paragraph "PAF aggregation" was followed for the ADP-induced aggregation.

Structures are written as SMILES.

T1 sequence (G1TEI7 1-342): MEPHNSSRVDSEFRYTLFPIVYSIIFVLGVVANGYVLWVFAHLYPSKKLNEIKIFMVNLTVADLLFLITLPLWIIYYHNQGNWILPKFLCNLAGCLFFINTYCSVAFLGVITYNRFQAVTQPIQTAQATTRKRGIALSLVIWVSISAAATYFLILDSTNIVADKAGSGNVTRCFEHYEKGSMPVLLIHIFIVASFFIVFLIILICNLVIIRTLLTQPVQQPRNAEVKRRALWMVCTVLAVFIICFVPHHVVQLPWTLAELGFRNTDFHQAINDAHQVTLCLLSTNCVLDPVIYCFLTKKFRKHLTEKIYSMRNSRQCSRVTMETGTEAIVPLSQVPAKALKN

For `C[N+](C)(C)C[C@H](O)CC(=O)OC/C=C1\OC(=O)c2ccccc21` [ST 736, (Z)-(3-phtalidylidene)ethyl ester of L-carnitine bromide], the IC50 in data set [1] was found to be 9300 nM. Besides, the SYMPTOMS entry is recorded as “n.e” in the data set with mice (600 mg/kg per os) and “convulsion, salivation” in the data set with mice (1000 mg/kg per os). In addition, the “DEATH RATE” value was 0/4 in the data set on mice (600 mg/kg) and 3/4 in the data set on mice (1000 mg/kg).

`CC(=O)O[C@H](CC(=O)OC/C=C1\OC(=O)c2ccccc21)C[N+](C)(C)C` [ST 739] returned a half-maximal inhibitory concentration (IC50) in data set [1] of 5300 nM. Besides, the SYMPTOMS entry with mice (600 mg/kg per os) was “n.e”; in the data set on mice (1000 mg/kg per os), “jerks”. Further, the “DEATH RATE” value is on record as 0/4 with mice (600 mg/kg) and 2/4 with mice (1000 mg/kg).

Regarding `CCC(=O)O[C@H](CC(=O)OC/C=C1\OC(=O)c2ccccc21)C[N+](C)(C)C` [ST 768], the IC50 in data set [1] was 6700 nM. Moreover, the SYMPTOMS result was “n.e” in the data set with mice (600 mg/kg per os) and “convulsion, salivation diarrhea, lacrimation” in the data set on mice (1000 mg/kg per os). The “DEATH RATE” value with mice (600 mg/kg) is reported as 0/4; in the data set on mice (1000 mg/kg), 1/4.

Compound `CC(C)C(=O)O[C@H](CC(=O)OC/C=C1\OC(=O)c2ccccc21)C[N+](C)(C)C` [ST 775] showed an IC50 in data set [1] of 2000 nM. Also, in the data set on mice (1000 mg/kg per os), the SYMPTOMS result is given as “n.e”. In addition, the “DEATH RATE” value with mice (1000 mg/kg) is reported as 0/4.

In turn, `CC(C)CC(=O)O[C@H](CC(=O)OC/C=C1\OC(=O)c2ccccc21)C[N+](C)(C)C` [ST 776] had an IC50 in data set [1] of 3600 nM. Besides, the inhibition at 10 µM in data set [2] stood at 100%; in data set [3], 5%. In addition, the SYMPTOMS entry is on record as “n.e” with mice (600 mg/kg per os) and “convulsion, salivation” in the data set on mice (1000 mg/kg per os). The “DEATH RATE” value in the data set on mice (600 mg/kg) was 0/4; in the data set on mice (1000 mg/kg), 2/4.

`C[N+](C)(C)C[C@H](O)CC(=O)OC/C=C1\OC(=O)c2cc(Cl)ccc21` [ST 801] registered an IC50 in data set [1] of 20 nM. The figures for the inhibition at 10 µM in data set [2] and in data set [3] were 97% and 7%, respectively. The SYMPTOMS result in the data set on mice (1000 mg/kg per os) was “salivation”. Further, the “DEATH RATE” value with mice (1000 mg/kg) is on record as 0/4.

`CC(C)CC(=O)O[C@H](CC(=O)OC/C=C1\OC(=O)c2cc(Cl)ccc21)C[N+](C)(C)C` [ST 803] had an IC50 in data set [1] of 6.6 nM. Further, the inhibition at 10 µM in data set [2] worked out at 72%; in data set [3], 8%. Also, in the data set with mice (1000 mg/kg per os), the SYMPTOMS entry is on record as “diarrhea”. In the data set with mice (1000 mg/kg), the “DEATH RATE” value is given as 0/4.

The compound `CC(=O)O[C@H](CC(=O)OC/C=C1\OC(=O)c2cc(Cl)ccc21)C[N+](C)(C)C` [ST 804] had a concentration for half-maximal inhibition (IC50) in data set [1] of 19 nM. Moreover, the inhibition at 10 µM in data set [2] was determined as 96%; in data set [3], 13%. Besides, the SYMPTOMS result with mice (600 mg/kg per os) and with mice (1000 mg/kg per os) was “salivation” throughout. For the same compound, the “DEATH RATE” value is listed as 0/4 in the data set with mice (600 mg/kg) and 1/4 in the data set on mice (1000 mg/kg).

In turn, `CCC(=O)O[C@H](CC(=O)OC/C=C1\OC(=O)c2cc(Cl)ccc21)C[N+](C)(C)C` [ST 805] returned a 50% inhibitory concentration (IC50) in data set [1] of 22 nM. Further, the inhibition at 10 µM in data set [2] is 40%; in data set [3], 10%. In addition, the SYMPTOMS result with mice (600 mg/kg per os) and in the data set on mice (1000 mg/kg per os) was “salivation” each time. The “DEATH RATE” value with mice (600 mg/kg) is reported as 0/4; with mice (1000 mg/kg), 1/4.

In data set [1], `CC(C)C(=O)O[C@H](CC(=O)OC/C=C1\OC(=O)c2cc(Cl)ccc21)C[N+](C)(C)C` [ST 806] gave a half-inhibitory concentration (IC50) of 18 nM. The inhibition at 10 µM is 95% in data set [2] and 18% in data set [3]. Besides, the SYMPTOMS result in the data set on mice (600 mg/kg per os) and in the data set with mice (1000 mg/kg per os) was “salivation” in each case. In addition, the “DEATH RATE” value in the data set on mice (600 mg/kg) was 0/4; with mice (1000 mg/kg), 1/4.

What is called IC50 is the point on the concentration scale where inhibition reaches its midpoint. As a reminder, the inhibition is how much of the control response was suppressed. A lower inhibition goes with a response near the control.
